Legend:
[1] = biological target: T1, growth hormone secretagogue receptor (GHSR), rat pituitary membranes (Rattus norvegicus, UniProt O08725); assay: [35S]-Compound A radioreceptor binding, rat pituitary membranes
T1 construct: from the Wistar male rats (150-200 g); from tissue; host or cells: pituitary glands of male Wistar rats (150-200 g), crude membranes
Method: [^35 S]-Compound A was prepared from an appropriate precursor, N-[1(R)-[(1,2-dihydrospiro[3H-indole-3,4'-piperidin]-1'-yl)-carbonyl]-2-(phenyl-methyloxy)ethyl]-2-amino-t-butoxycarbonyl-2-methylpropanamide, using methane [^35 S]sulfonyl chloride as described in Dean DC, et al., 1995, In: Allen J, Voges R (eds) Synthesis and Applications of Isotopically Labelled Compounds, John Wiley & Sons, New York, pp. 795-801, Purification by semi-preparative HPLC (Zorbax SB-phenyl column, 68% MeOH/water, 0.1% TFA, 5 ml/min) was followed by N-t-BOC cleavage using 15% trifluroacetic acid in dichloromethane (25° C., 3 hr) to give [methylsulfonyl-^35 S]Compound A in near quantitative yield. HPLC purification (Hamilton PRP-1 4.6×250 mm column, linear gradient of 50-75% methanol-water with 1 mM HCl over 30 min, 1.3 ml/min) provided the ligand in >99% radiochemical purity. The structure was established by HPLC coelution with unlabeled Compound A and by mass spectral analysis. The latter method also indicated a specific activity of ~1000 Ci/mmol.
Frozen anterior pituitary glands from male swine (50-80 Kg) or from the Wistar male rats (150-200 g) were homogenized in a tissue homogenizer in ice-cold buffer (50 mM Tris-HCl buffer, pH 7.4, 5 mM MgCl2, 2.5 mM EDTA, 0.1% bovine serum albumin and 30 μg/ml bacitracin). The homogenates were centrifuged for 5 min at 1,400×g and the resulting supernatants were then centrifuged at 34,000×g for 20 min. The pellets were resuspended in same buffer to a 1,500 μg protein/ml and stored at -80° C. Protein was determined by a Bio-Rad method (Bio-Rad Laboratories, Richmond, Calif.).
The standard binding solution contained: […] of 25 mM Tris-HCl buffer, pH 7.4, 10 mM MgCl2, 2.5 mM EDTA, and 100 pM [^35 S]-Compound A. Pituitary membranes (100 μl, 150 μg protein) were added to initiate the binding reaction. […] The filters were washed three times with 3-ml of ice-cold buffer (50 mM Tris-HCl, pH 7.4, 10 mM MgCl2, 2.5 mM EDTA and 0.015% Triton X-100) and the radioactivity on the filters were counted in Aquasol 2. […]

swine Type II GHSR = assay: Aequorin bioluminescence assay in Xenopus oocytes, swine Type II GHSR; type: cell-based; settings: swine Type II-derived cRNA truncated in TM-6
Method: Xenopus laevis oocytes were isolated and injected using standard methods previously described by Arena, et. al. 1991, Mol. Pharmacol. 40, 368-374, which is hereby incorporated by reference. Adult female Xenopus Laevis frogs (purchased from Xenopus One, Ann Arbor, Mich.) were anesthetized with 0.17% tricaine methanesulfonate and the ovaries were surgically removed and placed in a 60 mm culture dish (Falcon) containing OR-2 medium without calcium (82.5 mM NaCl, 2 mM KCl, 2.5 mM sodium pyruvate, 1 mM MgCl2, 100 μ/ml penicillin, 1 mg/ml streptomycin, 5 mM HEPES, pH=7.5; ND-96 from Specialty Media, NJ). Ovarian lobes were broken open, rinsed several times, and oocytes were released from their sacs by collagenase A digestion (Boehringer-Mannheim; 0.2% for 2-3 hours at 18° C.) in calcium-free OR-2. […]
The ABA requires injection of library pool cRNA (25 ng/egg for pool sizes of 500 to 10,000) with aequorin cRNA (2 ng/egg) supplemented with the G-protein alpha subunit Gα11 (2 ng/egg). […] Polymerase chain reaction (PCR) was utilized to generate a DNA fragment corresponding to the open reading frame (ORF) of the aequorin cDNA with an optimized Kosak translational initiation sequence (Inouye, S. et. al., 1985, Proc. Natl. Acad. Sci. USA 82:3154-3158). […]

T1 sequence (O08725 whole entry): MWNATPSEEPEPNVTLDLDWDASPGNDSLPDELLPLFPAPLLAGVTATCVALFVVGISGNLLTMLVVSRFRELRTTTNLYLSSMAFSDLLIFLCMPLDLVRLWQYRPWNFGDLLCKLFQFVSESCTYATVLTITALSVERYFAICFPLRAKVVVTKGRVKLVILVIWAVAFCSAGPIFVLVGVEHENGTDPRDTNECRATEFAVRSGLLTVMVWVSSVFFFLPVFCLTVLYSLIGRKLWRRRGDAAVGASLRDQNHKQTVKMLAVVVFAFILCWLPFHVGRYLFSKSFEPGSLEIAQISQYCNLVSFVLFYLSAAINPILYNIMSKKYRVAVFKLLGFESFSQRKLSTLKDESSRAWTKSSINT

## CC(C)(N)C(=O)N[C@H](COCc1ccccc1)C(=O)N1CCC2(CC1)CN(S(C)(=O)=O)c1ccccc12 [Compound A, (N-[1(R)-[1,2-dihydro-1-methanesulfonlylspiro[3H-indole-3,4'-piperidin]-1'-yl)carbonyl]-2-(phenylmethyloxy)-ethyl]-2-amino-2-methyl-propanamide]
[1]; rat membranes, nonspecific in 500 nM unlabeled Compound A
  specific binding of total binding: 45-60%
[1]; rat pituitary membranes, n=3
  Bmax: 2.3±1.1 fmol/mg protein
  Kd: 0.18 ± 0.009 nM
Swine Type II GHSR
  response (in words): failed to give a response

From US6242199A, “Assays for growth hormone secretagogue receptors” (Merck & Co., Inc., priority 1998, dated 2001)
